These are literature values, as cited in patent publication US5916587A, “Transdermal delivery matrix for piroxicam” (Sunkyong Industries Co., Ltd., priority 1992, dated 1999).

For data set [1], the system named is prostaglandin biosynthesis.
The conditions of data set [2]: orally administered.
For data set [3] the following is noted: oral use.

Consider `Nc1nc2cccc(-c3ccc(CN4CCS(=O)(=O)CC4)cc3)n2n1` [metabolite], for which, in data set [1] (metabolite vs piroxicam), the “fold less active than piroxicam inhibiting prostaglandin synthesis” value is “at least 1000 times”.

Take `CN1C(C(=O)Nc2ccccn2)=C(O)c2ccccc2S1(=O)=O` [Piroxicam, piroxicam]: in data set [2], the “drug excreted in the urine unchanged” value is given as “Less than 5%” and the metabolism entry is “metabolized at the first pass route”. Further, in data set [1] (compared with indomethacin), the “potency as an inhibitor of prostaglandin biosynthesis in vitro” value is reported as “about equal in potency to indomethacin”. In data set [3], the side effects entry is given as “gastro-intestinal trouble, peptic ulcer”.
